The target of the experiment is T1, full-length human PKCι (Homo sapiens, UniProt P41743).
T1 construct: Recombinant, full-length human PKCι expressed in Sf21 insect cells is also commercially available; purchased; host or cells: Sf21 insect cells
T1 sequence (P41743 1-596): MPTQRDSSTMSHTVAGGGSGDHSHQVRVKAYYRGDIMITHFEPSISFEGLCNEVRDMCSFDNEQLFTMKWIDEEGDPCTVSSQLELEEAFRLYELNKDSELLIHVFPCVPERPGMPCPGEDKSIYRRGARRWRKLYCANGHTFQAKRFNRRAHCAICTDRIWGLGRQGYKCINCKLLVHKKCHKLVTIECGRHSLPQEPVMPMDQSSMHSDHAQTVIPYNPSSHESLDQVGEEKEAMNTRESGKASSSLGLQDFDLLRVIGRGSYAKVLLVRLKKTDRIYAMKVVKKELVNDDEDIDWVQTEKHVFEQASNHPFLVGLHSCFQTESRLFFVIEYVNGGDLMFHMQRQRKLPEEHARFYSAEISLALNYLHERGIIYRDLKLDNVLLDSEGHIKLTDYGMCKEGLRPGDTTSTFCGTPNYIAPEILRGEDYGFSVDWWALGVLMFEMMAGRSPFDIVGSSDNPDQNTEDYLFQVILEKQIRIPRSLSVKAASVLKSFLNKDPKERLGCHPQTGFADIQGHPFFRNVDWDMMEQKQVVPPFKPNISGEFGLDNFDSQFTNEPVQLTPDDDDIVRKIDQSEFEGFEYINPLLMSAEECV
Briefly: PKCι IC50 IMAP assay, full-length PKCι at 150 μM ATP. In kind it is biochemical. The following applies: read-out: IC50 in IMAP assay against full length PKCi at 150 μM ATP. A digest of the protocol: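 IC50 from IMAP FP (ex 485/em 530 nm) after 60 min room-temperature reaction in pH 7.5 tris buffer with 9 mM MgCl2 and 0.9 mM DTT. Enzyme: full-length Sf21-expressed PKCι (~15 pM); ATP 150 μM, five times KM^APP; FAM-labelled peptide 100 nM; DMSO 4%.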

As to `Fc1cccc(F)c1Nc1cc(-c2nc(N3CCNCC3)c3c(C4CC4)cnc(Cl)c3n2)ccn1` [Example 2100, [4-(8-Chloro-5-cyclopropyl-4-piperazin-1-yl-pyrido[3,4-d]pyrimidin-2-yl)-pyridin-2-yl]-(2,6-difluoro-phenyl)-amine], the IC50 (commonly the concentration at which inhibition is half-maximal) was below 0.1 µM.

Turning to `N[C@H](CNc1nc(-c2ccncc2)nc2c(-c3ccc(-c4ccc(Cl)cc4)cc3)nccc12)Cc1ccccc1` [Example 107, N-[(2S)-2-amino-3-phenylpropyl]-8-[4-(4-chloro-phenyl)-phenyl]-2-(pyridin-4-yl)pyrido[3,4-d]pyrimidin-4-amine], the IC50 is 1 to 10 µM.

For `CC(O)c1ccccc1Nc1cc(-c2nc(N3CCNCC3)c3c(C4CC4)cncc3n2)ccn1` (stereo not shown) [Example 560, 1-{2-[4-(5-Cyclopropyl-4-piperazin-1-yl-pyrido[3,4-d]pyrimidin-2-yl)-pyridin-2-ylamino]-phenyl}-ethanol], the concentration for half-maximal inhibition (IC50) was 0.1 to 1 µM. The same measure for `Fc1cnc(F)c(Nc2cc(-c3nc(N4CCNCC4)c4c(C5CC5)cncc4n3)ccn2)c1` [Example 749, [4-(5-Cyclopropyl-4-piperazin-1-yl-pyrido[3,4-d]pyrimidin-2-yl)-pyridin-2-yl]-(2,5-difluoro-pyridin-3-yl)-amine]: below 0.1 µM; for `Fc1cccc(F)c1Nc1cc(-c2nc(NC3CNC3)c3c(C4CC4)cncc3n2)ccn1` [Example 2026, Azetidin-3-yl-{5-cyclopropyl-2-[2-(2,6-difluoro-phenylamino)-pyridin-4-yl]-pyrido[3,4-d]pyrimidin-4-yl}-amine]: below 0.1 µM; for `c1cc2c(N[C@@H]3CCNC3)nc(-c3ccnc(Nc4cc(N5CCOCC5)ccn4)c3)nc2cn1` [Example 343, {2-[2-(4-Morpholin-4-yl-pyridin-2-ylamino)-pyridin-4-yl]-pyrido[3,4-d]pyrimidin-4-yl}-(R)-pyrrolidin-3-yl-amine]: 0.1 to 1 µM. Then `c1ccn2nc(Nc3cc(-c4nc(N5CCNCC5)c5c(C6CCC6)cncc5n4)ccn3)nc2c1` [Example 2022, [4-(5-Cyclobutyl-4-piperazin-1-yl-pyrido[3,4-d]pyrimidin-2-yl)-pyridin-2-yl]-[1,2,4]triazolo[1,5-a]pyridin-2-yl-amine], with below 0.1 µM; and `N#Cc1ccc(F)c(Nc2cc(-c3nc(N4CCNCC4)c4c(C5CC5)cncc4n3)ccn2)c1` [Example 528, 3-[4-(5-Cyclopropyl-4-piperazin-1-yl-pyrido[3,4-d]pyrimidin-2-yl)-pyridin-2-ylamino]-4-fluoro-benzonitrile], with 0.1 to 1 µM; and `NC1CCN(c2nc(-c3ccnc(Nc4c(F)cccc4F)c3)nc3cncc(C4CC4)c23)C1` (stereo not shown) [Example 708, {4-[4-(3-Amino-pyrrolidin-1-yl)-5-cyclopropyl-pyrido[3,4-d]pyrimidin-2-yl]-pyridin-2-yl}-(2,6-difluoro-phenyl)-amine], with 0.1 to 1 µM. Then `c1ccc2sc(Nc3cc(-c4nc(N5CCNCC5)c5c(C6CC6)cncc5n4)ccn3)nc2c1` [Example 2045, Benzothiazol-2-yl-[4-(5-cyclopropyl-4-piperazin-1-yl-pyrido[3,4-d]pyrimidin-2-yl)-pyridin-2-yl]-amine], with below 0.1 µM. As to `N[C@H](CNc1nc(-c2ccncc2)nc2c(-c3ccn[nH]3)nccc12)Cc1ccccc1` [Example 89, N-[(2S)-2-amino-3-phenylpropyl]-8-(1H-pyrazol-5-yl)-2-(pyridin-4-yl)pyrido[3,4-d]-pyrimidin-4-amine], the IC50 is below 0.1 µM. Then `c1ccc(C2(c3cc4c(-c5nc(N6CCNCC6)c6c(C7CCC7)cncc6n5)ccnc4[nH]3)CCC2)cc1` [Example 2181, 5-Cyclobutyl-2-[2-(1-phenyl-cyclobutyl)-1H-pyrrolo[2,3-b]pyridin-4-yl]-4-piperazin-1-yl-pyrido[3,4-d]pyrimidine], with below 0.1 µM; and `N[C@H](CNc1nc(-c2ccncc2)nc2c(Oc3ccccc3)nccc12)Cc1ccccc1` [Example 129, N-[(2S)-2-amino-3-phenylpropyl]-8-phenoxy-2-(pyridin-4-yl)pyrido[3,4-d]pyrimidin-4-amine], with 0.1 to 1 µM; and `C[C@@H]1CN(c2nc(-c3ccnc(Nc4c(F)cccc4F)c3)nc3cncc(C4CC4)c23)C[C@H](C)N1` [Example 843, {4-[5-Cyclopropyl-4-((3R,5S)-3,5-dimethyl-piperazin-1-yl)-pyrido[3,4-d]pyrimidin-2-yl]-pyridin-2-yl}-(2,6-difluoro-phenyl)-amine], with below 0.1 µM.

With `CS(=O)(=O)c1ccc(F)c(Nc2cc(-c3nc(N4CCNCC4)c4c(C5CC5)cncc4n3)ccn2)c1` [Example 556, [4-(5-Cyclopropyl-4-piperazin-1-yl-pyrido[3,4-d]pyrimidin-2-yl)-pyridin-2-yl]-(2-fluoro-5-methanesulfonyl-phenyl)-amine], the concentration for half-maximal inhibition (IC50) was below 0.1 µM. The same measure for `CN1CCN(c2cccc(Nc3cc(-c4nc(N5CCC[C@@H](O)C5)c5c(C6CC6)cncc5n4)ccn3)n2)CC1` [Example 781, (R)-1-(5-Cyclopropyl-2-{2-[6-(4-methyl-piperazin-1-yl)-pyridin-2-ylamino]-pyridin-4-yl}-pyrido[3,4-d]pyrimidin-4-yl)-piperidin-3-ol]: 0.1 to 1 µM. The same measure for `N#Cc1ccc(Nc2cc(-c3nc(N4CCNCC4)c4c(C5CC5)cncc4n3)ccn2)cc1` [Example 645, 4-[4-(5 Cyclopropyl-4-piperazin-1-yl-pyrido[3,4-d]pyrimidin-2-yl)-pyridin-2-ylamino]-benzonitrile]: below 0.1 µM. Then `COC(=O)C1CN(c2nc(-c3ccncc3)nc3cncc(OC)c23)CCN1` (stereo not shown) [Example 155, 4-(5-Methoxy-2-pyridin-4-yl-pyrido[3,4-d]pyrimidin-4-yl)-piperazine-2-carboxylic acid methyl ester], with 1 to 10 µM; and `Nc1ccc(CC(=O)Nc2cc(-c3nc(N[C@@H]4CCNC4)c4ccncc4n3)ccn2)cc1` [Example 314, 2-(4-Amino-phenyl)-N-{4-[4-((R)-pyrrolidin-3-ylamino)-pyrido[3,4-d]pyrimidin-2-yl]-pyridin-2-yl}-acetamide], with below 0.1 µM. As for `CC(C)NC(=O)C1CCN(c2nc(-c3ccnc(Nc4c(F)cccc4F)c3)nc3cncc(C4CC4)c23)CC1` [Example 655, 1-{5-Cyclopropyl-2-[2-(2,6-difluoro-phenylamino)-pyridin-4-yl]-pyrido[3,4-d]pyrimidin-4-yl}-piperidine-4-carboxylic acid isopropylamide], the IC50 is 1 to 10 µM. Then `Fc1cc(C2CCC2)cnc1Nc1cc(-c2nc(N3CCNCC3)c3c(C4CC4)cncc3n2)ccn1` [Example 2013, (5-Cyclobutyl-3-fluoro-pyridin-2-yl)-[4-(5-cyclopropyl-4-piperazin-1-yl-pyrido[3,4-d]pyrimidin-2-yl)-pyridin-2-yl]-amine], with below 0.1 µM; and `N#Cc1ccnc(Nc2cc(-c3nc(N4CC[C@@H](O)[C@H](O)C4)c4c(C5CC5)cncc4n3)ccn2)c1` (racemic) [Example 677, (+/−)-2-{4-[5-Cyclopropyl-4-((trans)-3,4-dihydroxy-piperidin-1-yl)-pyrido[3,4-d]pyrimidin-2-yl]-pyridin-2-ylamino}-isonicotinonitrile], with 0.1 to 1 µM. Then `CC(C)Cn1cc(-c2nccc3c(NC[C@@H](N)Cc4ccccc4)nc(-c4ccncc4)nc23)cn1` [Example 101, N-[(2S)-2-amino-3-phenylpropyl]-8-[1-(2-methyl-propyl)-1H-pyrazol-4-yl]-2-(pyridin-4-yl)-pyrido[3,4-d]-pyrimidin-4-amine], with 1 to 10 µM; and `FC1(F)CC(Nc2cc(-c3nc(N4CCNCC4)c4c(C5CC5)cncc4n3)ccn2)C1` [Example 585, [4-(5-Cyclopropyl-4-piperazin-1-yl-pyrido[3,4-d]pyrimidin-2-yl)-pyridin-2-yl]-(3,3-difluorocyclo-butyl)-amine], with below 0.1 µM; and `COc1cncc2nc(-c3ccncc3)nc(N3CCNCC3)c12` [Example 31, 1-[5-methoxy-2-(pyridin-4-yl)-pyrido[3,4-d]-pyrimidin-4-yl]-piperazine], with 0.1 to 1 µM. Then `CC(C)(C)c1cc2c(-c3nc(N4CC[C@@H](O)C4)c4c(C5CC5)cncc4n3)ccnc2[nH]1` [Example 1250, (R)-1-[2-(2-tert-Butyl-1H-pyrrolo[2,3-b]pyridin-4-yl)-5-cyclopropyl-pyrido[3,4-d]pyrimidin-4-yl]-pyrrolidin-3-ol], with below 0.1 µM. `OC1CCN(c2nc(-c3ccnc(Nc4cccc(N5CCOCC5)c4)c3)nc3cncc(C4CC4)c23)CC1` [Example 834, 1-{5-Cyclopropyl-2-[2-(3-morpholin-4-yl-phenylamino)-pyridin-4-yl]-pyrido[3,4-d]pyrimidin-4-yl}-piperidin-4-ol]: the concentration for half-maximal inhibition (IC50) is below 0.1 µM. The same measure for `Fc1ccc(Cl)c(F)c1Nc1cc(-c2nc(N3CCNCC3)c3c(C4CC4)cncc3n2)ccn1` [Example 618, (3-Chloro-2,6-difluoro-phenyl)-[4-(5-cyclopropyl-4-piperazin-1-yl-pyrido[3,4-d]pyrimidin-2-yl)-pyridin-2-yl]-amine]: below 0.1 µM.

For the origin of these results see patent US9914730B2, “Azaquinazoline inhibitors of Atypical protein Kinase C” (Ignyta, Inc., priority 2012, dated 2018).
